Results published in patent US20180221487A1, “NOVEL PROTEIN TRANSFECTION COMPOSITIONS AND USES THEREOF” (Chang Gung Memorial Hospital, Linkou, priority 2017, published 2018).

Assays:
Experiment in all cases: Protein transfection efficiency by flow cytometry
Type in all cases: cell-based, human
Conditions in all cases: HEPES buffer 20 mM-40 mM
endometrial cancer cells = test system: endometrial cancer cells
Protocol: (§1) Flow cytometry: After protein transfection was completed, the cells in the culture dish were washed with PBS, trypsinized and pelleted. The cells were mixed with Fixation/Permeabilization (eBioscience, Inc., San Diego, Calif., USA) working solution and incubated at 4° C. for 30 min to 24 h. Cells were washed twice with 1× Permeabilization Buffer (eBioscience, Inc., San Diego, Calif., USA). To assess the protein transfection efficiency, the cells were stained with anti-v5 or anti-flag antibodies and Alexa Fluor 488 anti-mouse antibodies on ice. Cells were suspended in 1×PBS and analyzed by flow cytometry (BD Biosciences, Qume Drive San Jose, Calif., USA). FIG. 1 schematically illustrates the protein transfection procedure. Briefly, the protein of interest and a protein transfection composition, such as HEPES buffer, were mixed and incubated for about 15 min to about 30 min to form a mixture (Panel A). Cells to be transfected were replaced in a minimal essential medium (Panel B). The mixture in Panel A was added to the cells in Panel B and incubated at 37° C. for about 4 to about 24 hours (Panel C). The protein transfection efficiency can be analyzed using immunofluorescent staining or flow cytometry (Panel D). Alexa Fluor 488 anti-mouse IgG or […]1 were incubated with Opti-MEM (the control group) or HEPES buffer (20 mM-40 mM) to transfect the following cancer cells according to the steps in Example 1: human cervical cancer cells, human breast cancer cells (MCF7, BRCA009 or BRCA011), human endometrial cancer cells, lung adenocarcinoma cells, human pancreatic cancer cells, hepatocellular carcinoma cells, scarcoma cells, renal cell carcinoma cells, lymphoma cells, nasopharyngeal carcinoma cells, brain tumor cells, colon cancer cells, and leukemic cells. The protein transfection efficiency was assessed by flow cytometry or confocal microscope.

cervical cancer cells = test system: cervical cancer cells
Protocol: as §1

pancreatic cancer cells = test system: pancreatic cancer cells
Protocol: as §1

[1] = test system: hepatocellular carcinoma cells
Protocol: as §1

breast cancer cells = test system: breast cancer cells
Protocol: as §1

[2] = test system: lung adenocarcinoma cells
Protocol: as §1

## rhSTIP1: v5-tagged recombinant human STIP1 protein (BiP-STIP1-V5-His), 62.6 kDa
Endometrial cancer cells
  transfection efficiency of rhSTIP1 using HEPES buffer: ~97%
Cervical cancer cells
  transfection efficiency of rhSTIP1 using HEPES buffer: about 98.8%
Pancreatic cancer cells
  transfection efficiency of rhSTIP1 using HEPES buffer: ~99.9%
[1]
  transfection efficiency of rhSTIP1 using HEPES buffer: ~96.6%
Breast cancer cells
  transfection efficiency of rhSTIP1 using HEPES buffer: about 98.8%
[2]
  transfection efficiency of rhSTIP1 using HEPES buffer: ~99.5%
